Target: PD-1/PD-L1 (Homo sapiens (Human), UniProt Q9NZQ7)
Assay: PD-1/PD-L1 Binding Assay (Alphascreen)
Details: numeric values
Description: PD-1/PD-L1 Binding Assay (Alphascreen)
The assays were conducted in a standard black 384-well polystyrene plate with a final volume of 20 μL. Inhibitors were first serially diluted in DMSO and then added to the plate wells before the addition of other reaction components. The final concentration of DMSO in the assay was […]. Add 100 nL/well of compound to the 384 reaction plate (6008280, PerkinElmer) with Echo and centrifuge at 1000 rpm for 1 minute. Add 5 μL/well 4×PD-L1 solutions to the 384 reaction plate, centrifuge at 1000 rpm for 1 minute, and add 5 μL/well 4×PD-1 solutions, centrifuge at 1000 rpm for 1 minute, and incubate at 25° C. for 15 minutes. The concentrations of the compounds were 300, 100, 33.33, 11.11, 3.70, 1.23, 0.41, 0.137, 0.046, 0.015, 0 nM, respectively. Add 10 μL/well 2× Anti-6×His AlphaLISA Acceptor beads and Streptavidin Donor beads solution (PerkinElmer-AL356F) to the above 384 reaction plate, centrifuge at 1000 rpm for 1 minute, and incubate at 25° C. in the dark for 120 minutes. Read the AlphaLISA signal value using the Envision Reader. IC50 determination was performed by fitting the curve of percent control activity versus the log of the inhibitor concentration using the GraphPad Prism 8.0 software.

Sequence of PD-1/PD-L1 (Q9NZQ7 19-238): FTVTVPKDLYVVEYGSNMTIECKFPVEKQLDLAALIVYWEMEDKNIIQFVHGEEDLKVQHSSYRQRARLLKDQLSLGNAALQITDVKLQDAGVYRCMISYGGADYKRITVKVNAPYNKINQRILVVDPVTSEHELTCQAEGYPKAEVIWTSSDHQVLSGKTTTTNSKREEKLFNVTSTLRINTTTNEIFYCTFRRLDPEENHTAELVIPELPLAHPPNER

Compound | IC50 [nM]
Cc1c(-c2ccc(CN3CCC(N(C)C)C3)cc2)cccc1-c1cccc(-c2nc3cc(CN4CCC[C@H]4C(=O)O)c(OC(F)F)cc3o2)c1C (stereo partly drawn) [Example 228, ((6-(difluoromethoxy)-2-(4″-((3-(dimethylamino)pyrrolidin-1-yl)methyl)-2,2′-dimethyl-[1,1′:3′,1″-terphenyl]-3-yl)benzo[d]oxazol-5-yl)methyl)-L-proline] | 4.3
Cc1c(-c2ccc(CN3CCCC3)nc2)cccc1-c1cccc(-c2nc3cc(CN4CCC[C@H]4C(=O)O)c(OC(F)F)cc3o2)c1C [Example 263, ((6-(difluoromethoxy)-2-(2,2′-dimethyl-3′-(6-(pyrrolidin-1-ylmethyl)pyridin-3-yl)-[1,1′-biphenyl]-3-yl)benzo[d]oxazol-5-yl)methyl)-L-proline] | 0.98
Cc1c(Nc2nccc3cc(CNCC(=O)O)cnc23)cccc1-c1cccc(-c2nc3cc(CN4CCC[C@H]4C(=O)O)c(OC(F)F)cc3o2)c1C [Example 172, ((2-(3′-((3-(((carboxymethyl)amino)methyl)-1,7-naphthyridin-8-yl)amino)-2,2′-dimethyl-[1,1′-biphenyl]-3-yl)-6-(difluoromethoxy)benzo[d]oxazol-5-yl)methyl)-L-proline] | 0.3
Cc1c(-c2nc3cc(CN4CCC[C@H]4C(=O)O)c(OC(F)F)cc3o2)cccc1-c1cccc(-c2nc3cc(CN4CC(C)(C)C4)cnc3o2)c1C [Example 113, ((6-(difluoromethoxy)-2-(3′-(6-((3,3-dimethylazetidin-1-yl)methyl)oxazolo[5,4-b]pyridin-2-yl)-2,2′-dimethyl-[1,1′-biphenyl]-3-yl)benzo[d]oxazol-5-yl)methyl)-L-proline] | 0.5
Cc1c(Nc2nccc3cc(CN4CCC(F)C4)cnc23)cccc1-c1cccc(-c2nc3cc(CN4CCC[C@H]4C(=O)O)c(OC(F)F)cc3o2)c1C (stereo partly drawn) [Example 174, ((6-(difluoromethoxy)-2-(3′-((3-((3-fluoropyrrolidin-1-yl)methyl)-1,7-naphthyridin-8-yl)amino)-2,2′-dimethyl-[1,1′-biphenyl]-3-yl)benzo[d]oxazol-5-yl)methyl)-L-proline] | 21
Cc1c(-c2nc3ccc(CN4CCCC4)cn3n2)cccc1-c1cccc(-c2nc3cc(CN4CCC[C@H]4C(=O)O)c(OC(F)F)cc3o2)c1C [Example 305, ((6-(difluoromethoxy)-2-(2,2′-dimethyl-3′-(6-(pyrrolidin-1-ylmethyl)-[1,2,4]triazolo[1,5-a]pyridin-2-yl)-[1,1′-biphenyl]-3-yl)benzo[d]oxazol-5-yl)methyl)-L-proline] | 0.87
Cc1c(-c2nc3cc(CN4CCC[C@@H]4C(=O)O)c(OC(F)F)cc3o2)cccc1-c1cccc(-c2nc3cc(CN4CCC(C)C4)cc(C(F)(F)F)c3o2)c1C (stereo partly drawn) [Example 90, ((6-(difluoromethoxy)-2-(2,2′-dimethyl-3′-(5-((3-methylpyrrolidin-1-yl)methyl)-7-(trifluoromethyl)benzo [d]oxazol-2-yl)-[1,1′-biphenyl]-3-yl)benzo[d]oxazol-5-yl)methyl)-D-proline] | 0.88

Same assay, conditions: range symbols

Compound | IC50 [nM]
Cc1c(-c2nc3cc(CN4CCC[C@H]4C(=O)O)c(OC(F)F)cc3o2)cccc1-c1cccc(N2CCC(CN3CCCC3)CC2)c1C [Example 309, ((6-(difluoromethoxy)-2-(2,2′-dimethyl-3′-(4-(pyrrolidin-1-ylmethyl)piperidin-1-yl)-[1,1′-biphenyl]-3-yl)benzo[d]oxazol-5-yl)methyl)-L-proline] | 0.1 to 5
Cc1c(-c2nc3cc(CN4CCC[C@H]4C(=O)O)c(OC(F)F)cc3o2)cccc1-c1cccc(-c2nc3cc(CN4CC(C)(CN(C)C)C4)cc(C#N)c3o2)c1C [Example 159, ((2-(3′-(7-cyano-5-((3-((dimethylamino)methyl)-3-methylazetidin-1-yl)methyl)benzo[d]oxazol-2-yl)-2,2′-dimethyl-[1,1′-biphenyl]-3-yl)-6-(difluoromethoxy)benzo[d]oxazol-5-yl)methyl)-L-proline] | 0.1 to 5
Cc1c(-c2nc3cc(CN4CCC[C@H]4C(=O)O)c(OC(F)F)cc3o2)cccc1-c1cccc(-c2nc3cc(CN4CCC(C)(C#N)C4)cc(C#N)c3o2)c1C (stereo partly drawn) [Example 316, ((2-(3′-(7-cyano-5-((3-cyano-3-methylpyrrolidin-1-yl)methyl)benzo[d]oxazol-2-yl)-2,2′-dimethyl-[1,1′-biphenyl]-3-yl)-6-(difluoromethoxy)benzo[d]oxazol-5-yl)methyl)-L-proline] | 5 to 50
Cc1c(-c2ccc3c(c2)CN(C(C)C(=O)O)C3)cccc1-c1cccc(-c2nc3cc(CN4CCC[C@H]4C(=O)O)c(OC(F)F)cc3o2)c1C (stereo partly drawn) [Example 292, ((2-(3′-(2-(1-carboxyethyl)isoindolin-5-yl)-2,2′-dimethyl-[1,1′-biphenyl]-3-yl)-6-(difluoromethoxy)benzo[d]oxazol-5-yl)methyl)-L-proline] | 5 to 50
Cc1c(-c2nc3cc(CN4CCC[C@H]4C(=O)O)c(OC(F)F)cc3o2)cccc1-c1cccc(-c2ccc(CN3CCCC3)cc2F)c1Br [Example 221, ((2-(2′-bromo-2″-fluoro-2-methyl-4″- (pyrrolidin-1-ylmethyl)-[1,1′:3′,1″-terphenyl]-3-yl)-6-(difluoromethoxy)benzo[d]oxazol-5-yl)methyl)proline] | 0.1 to 5
CC1(C)CN(Cc2cc3nc(-c4cccc(-c5cccc(-c6nc7cc(CN8CCC[C@H]8C(=O)O)c(OC(F)F)cc7o6)c5C#N)c4C#N)oc3cc2OC(F)F)C1 [Example 83, ((2-(2,2′-dicyano-3′-(6-(difluoromethoxy)-5-((3,3-dimethylazetidin-1-yl)methyl)benzo[d]oxazol-2-yl)-[1,1′-biphenyl]-3-yl)-6-(difluoromethoxy)benzo[d]oxazol-5-yl)methyl)-L-proline] | 5 to 50
Cc1c(-c2nc3c(o2)CCN(C(C)C(=O)O)C3)cccc1-c1cccc(-c2nc3cc(CN4CCC[C@H]4C(=O)O)c(OC(F)F)cc3o2)c1C (stereo partly drawn) [Example 186, ((2-(3′-(5-(1-carboxyethyl)-4,5,6,7-tetrahydrooxazolo[4,5-c]pyridin-2-yl)-2,2′-dimethyl-[1,1′-biphenyl]-3-yl)-6-(difluoromethoxy)benzo[d]oxazol-5-yl)methyl)-L-proline] | 0.1 to 5
Cc1c(-c2nc3cc(CN4CCC[C@H]4C(=O)O)c(OC(F)F)cc3o2)cccc1-c1cccc(-c2nc3cc(CN4CC(N(C)C)C4)cnc3o2)c1C [Example 116, ((6-(difluoromethoxy)-2-(3′-(6-((3-(dimethylamino)azetidin-1-yl)methyl)oxazolo [5,4-b]pyridin-2-yl)-2,2′-dimethyl-[1,1′-biphenyl]-3-yl)benzo[d]oxazol-5-yl)methyl)-L-proline] | 0.1 to 5
Cc1c(-c2nc3cc(CN4CCCC4(C)C)ccc3o2)cccc1-c1cccc(-c2nc3cc(CN4CCC[C@H]4C(=O)O)c(OC(F)F)cc3o2)c1C [Example 311, ((6-(difluoromethoxy)-2-(3′-(5-((2,2-dimethylpyrrolidin-1-yl)methyl)benzo[d]oxazol-2-yl)-2,2′-dimethyl-[1,1′-biphenyl]-3-yl)benzo[d]oxazol-5-yl)methyl)-L-proline] | 0.1 to 5
Cc1c(-c2ccc(CN3CCCC3)c(OCCc3ccc(F)cc3)c2)cccc1-c1cccc(-c2nc3cc(CN4CCC[C@H]4C(=O)O)c(OC(F)F)cc3o2)c1C [Example 249, ((6-(difluoromethoxy)-2-(3″-(4-fluorophenethoxy)-2,2′-dimethyl-4″-(pyrrolidin-1-ylmethyl)-[1,1′:3′,1″-terphenyl]-3-yl)benzo[d]oxazol-5-yl)methyl)proline] | 5 to 50
Cc1c(-c2nc3cc(CN4CCC[C@H]4C(=O)O)c(OC(F)F)cc3o2)cccc1-c1cccc(-c2nc3cc(CN4CCC(C)(F)C4)cc(C#N)c3o2)c1C (stereo partly drawn) [Example 167, ((2-(3′-(7-cyano-5-((3-fluoro-3-methylpyrrolidin-1-yl)methyl)benzo[d]oxazol-2-yl)-2,2′-dimethyl-[1,1′-biphenyl]-3-yl)-6-(difluoromethoxy)benzo[d]oxazol-5-yl)methyl)-L-proline] | 5 to 50
Cc1c(-c2nc3cc(CN4CCC[C@H]4C(=O)O)c(OC(F)F)cc3o2)cccc1-c1cccc(-c2nc3cc(CN4CC[C@H](C)C4)cc(C#N)c3o2)c1C [Example 130, ((2-(3′-(7-cyano-5-(((S)-3-methylpyrrolidin-1-yl)methyl)benzo[d]oxazol-2-yl)-2,2′-dimethyl-[1,1′-biphenyl]-3-yl)-6-(difluoromethoxy)benzo[d]oxazol-5-yl)methyl)-L-proline] | 0.1 to 5
Cc1c(-c2nc3c(o2)CCN(CCCO)C3)cccc1-c1cccc(-c2nc3cc(CN4CCC[C@H]4C(=O)O)c(OC(F)F)cc3o2)c1C [Example 199, ((6-(difluoromethoxy)-2-(3′-(5-(3-hydroxypropyl)-4,5,6,7-tetrahydrooxazolo[4,5-c]pyridin-2-yl)-2,2′-dimethyl-[1,1′-biphenyl]-3-yl)benzo[d]oxazol-5-yl)methyl)proline] | 5 to 50
Cc1c(-c2nc3c(o2)CN(C)CC3)cccc1-c1cccc(-c2nc3cc(CN4CCC[C@H]4C(=O)O)c(OC(F)F)cc3o2)c1C [Example 188, ((6-(difluoromethoxy)-2-(2,2′-dimethyl-3′-(5-methyl-4,5,6,7-tetrahydrooxazolo[5,4-c]pyridin-2-yl)-[1,1′-biphenyl]-3-yl)benzo[d]oxazol-5-yl)methyl)-L-proline] | 0.1 to 5
